In publication PMC11167047 (Cell Death Discovery, 2024) one finds residual kinase activity data, which are given here for 2 compounds.

Common to all, as to assay: kinome screen (33PanQinase)
Holding throughout (format): biochemical

In one experiment the target is T1, VRK2 (Homo sapiens, UniProt Q86Y07).
T1 construct: purchased Reaction Biology Europe GmbH (formerly ProQinase)
On the procedure:
(§1) The Kinome Screening was performed by Reaction Biology Europe GmbH (http://reactionbiology.com; Freiburg i. Br., Germany).

A further experiment deals with T2, PDK1 (Homo sapiens, UniProt O15530).
T2 construct: purchased Reaction Biology Europe GmbH (formerly ProQinase)
T2 sequence (O15530 1-556): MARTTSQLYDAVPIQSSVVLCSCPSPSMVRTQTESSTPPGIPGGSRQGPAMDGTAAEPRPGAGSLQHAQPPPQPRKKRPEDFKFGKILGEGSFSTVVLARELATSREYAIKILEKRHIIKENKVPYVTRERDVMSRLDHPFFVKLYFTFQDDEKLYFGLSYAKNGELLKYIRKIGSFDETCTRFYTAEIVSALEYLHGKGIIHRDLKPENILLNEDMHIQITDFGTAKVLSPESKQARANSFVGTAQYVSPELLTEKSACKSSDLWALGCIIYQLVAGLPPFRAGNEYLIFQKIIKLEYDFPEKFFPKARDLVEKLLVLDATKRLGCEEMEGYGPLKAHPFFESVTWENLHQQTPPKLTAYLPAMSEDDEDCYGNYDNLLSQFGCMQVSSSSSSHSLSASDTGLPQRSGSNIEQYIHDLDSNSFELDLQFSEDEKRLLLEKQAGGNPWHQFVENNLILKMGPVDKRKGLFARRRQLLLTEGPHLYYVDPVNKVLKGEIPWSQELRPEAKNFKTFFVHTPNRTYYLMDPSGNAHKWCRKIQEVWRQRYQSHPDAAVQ
On the procedure:
as §1

For a further experiment, the target named is T3, ACVR2A (Homo sapiens, UniProt P27037).
T3 construct: purchased Reaction Biology Europe GmbH (formerly ProQinase)
On the procedure: as §1

Another experiment concerns the target T4, MTOR (Homo sapiens, UniProt P42345).
T4 construct: purchased Reaction Biology Europe GmbH (formerly ProQinase)
On the procedure:
as §1

In the next experiment the target is T5, PKCη (Homo sapiens, UniProt P24723).
T5 construct: purchased Reaction Biology Europe GmbH (formerly ProQinase)
On the procedure:
as §1

In a further experiment the target is T6, MKK6 SDTD (Homo sapiens, UniProt P52564, S207D/T211D).
T6 construct: purchased Reaction Biology Europe GmbH (formerly ProQinase)
T6 sequence (P52564 1-334 S207D/T211D): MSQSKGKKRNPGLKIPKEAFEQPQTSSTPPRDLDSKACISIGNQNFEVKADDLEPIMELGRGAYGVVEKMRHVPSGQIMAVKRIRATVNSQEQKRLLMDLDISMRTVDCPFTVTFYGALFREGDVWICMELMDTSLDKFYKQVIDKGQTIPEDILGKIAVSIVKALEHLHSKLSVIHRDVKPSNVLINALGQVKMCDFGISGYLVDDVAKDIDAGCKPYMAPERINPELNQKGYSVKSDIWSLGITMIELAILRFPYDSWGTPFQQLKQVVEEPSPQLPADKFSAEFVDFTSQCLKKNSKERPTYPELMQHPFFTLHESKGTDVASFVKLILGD
The method, then: as §1

The next experiment has as its target T7, CAMK2B (Homo sapiens, UniProt Q13554).
T7 construct: purchased Reaction Biology Europe GmbH (formerly ProQinase)
The method, then:
as §1

In a further experiment the target is T8, EPHB1 (Homo sapiens, UniProt P54762).
T8 construct: purchased Reaction Biology Europe GmbH (formerly ProQinase)
T8 sequence (P54762 18-984): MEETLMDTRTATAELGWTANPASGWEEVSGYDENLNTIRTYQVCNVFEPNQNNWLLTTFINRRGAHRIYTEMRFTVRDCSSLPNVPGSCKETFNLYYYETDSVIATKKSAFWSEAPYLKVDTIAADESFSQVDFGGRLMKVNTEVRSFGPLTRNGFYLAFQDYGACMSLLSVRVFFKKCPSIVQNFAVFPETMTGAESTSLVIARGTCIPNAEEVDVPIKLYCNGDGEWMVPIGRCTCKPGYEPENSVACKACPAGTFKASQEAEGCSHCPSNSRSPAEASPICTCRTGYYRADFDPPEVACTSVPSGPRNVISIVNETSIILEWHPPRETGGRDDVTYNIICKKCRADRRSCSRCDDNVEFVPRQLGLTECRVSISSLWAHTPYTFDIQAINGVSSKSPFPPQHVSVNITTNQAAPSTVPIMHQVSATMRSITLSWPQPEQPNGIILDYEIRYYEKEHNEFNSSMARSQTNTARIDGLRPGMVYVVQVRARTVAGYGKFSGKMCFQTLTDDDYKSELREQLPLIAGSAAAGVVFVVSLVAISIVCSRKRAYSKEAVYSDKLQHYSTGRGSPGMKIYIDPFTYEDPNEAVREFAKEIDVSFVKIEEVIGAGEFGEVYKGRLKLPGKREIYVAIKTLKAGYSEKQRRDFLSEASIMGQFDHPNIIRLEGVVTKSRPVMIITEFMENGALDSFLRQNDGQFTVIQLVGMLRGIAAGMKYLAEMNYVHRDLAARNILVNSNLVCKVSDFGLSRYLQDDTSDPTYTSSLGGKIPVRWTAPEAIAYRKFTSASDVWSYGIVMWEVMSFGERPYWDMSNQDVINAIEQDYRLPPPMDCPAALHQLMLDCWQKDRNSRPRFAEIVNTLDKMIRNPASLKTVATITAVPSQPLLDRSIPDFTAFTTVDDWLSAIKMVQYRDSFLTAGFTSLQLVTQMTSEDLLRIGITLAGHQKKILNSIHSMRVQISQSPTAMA
The method, then:
as §1

For another experiment, the target named is T9, PKMYT1 (Homo sapiens, UniProt Q99640).
T9 construct: purchased Reaction Biology Europe GmbH (formerly ProQinase)
T9 sequence (Q99640 1-499): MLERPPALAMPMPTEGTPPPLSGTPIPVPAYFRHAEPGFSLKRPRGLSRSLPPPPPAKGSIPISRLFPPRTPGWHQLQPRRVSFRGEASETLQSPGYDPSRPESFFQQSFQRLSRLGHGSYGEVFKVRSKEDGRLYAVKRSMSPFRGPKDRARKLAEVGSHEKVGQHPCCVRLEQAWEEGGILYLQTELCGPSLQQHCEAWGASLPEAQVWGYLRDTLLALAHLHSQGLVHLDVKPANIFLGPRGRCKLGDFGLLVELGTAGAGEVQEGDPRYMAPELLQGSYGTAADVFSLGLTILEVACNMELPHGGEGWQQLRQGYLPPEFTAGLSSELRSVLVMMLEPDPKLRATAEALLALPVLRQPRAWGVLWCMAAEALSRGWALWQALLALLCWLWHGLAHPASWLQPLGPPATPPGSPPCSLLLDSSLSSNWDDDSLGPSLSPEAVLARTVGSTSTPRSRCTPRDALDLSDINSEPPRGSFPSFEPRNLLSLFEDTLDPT
On the procedure: as §1

T5 sequence (P24723 whole entry): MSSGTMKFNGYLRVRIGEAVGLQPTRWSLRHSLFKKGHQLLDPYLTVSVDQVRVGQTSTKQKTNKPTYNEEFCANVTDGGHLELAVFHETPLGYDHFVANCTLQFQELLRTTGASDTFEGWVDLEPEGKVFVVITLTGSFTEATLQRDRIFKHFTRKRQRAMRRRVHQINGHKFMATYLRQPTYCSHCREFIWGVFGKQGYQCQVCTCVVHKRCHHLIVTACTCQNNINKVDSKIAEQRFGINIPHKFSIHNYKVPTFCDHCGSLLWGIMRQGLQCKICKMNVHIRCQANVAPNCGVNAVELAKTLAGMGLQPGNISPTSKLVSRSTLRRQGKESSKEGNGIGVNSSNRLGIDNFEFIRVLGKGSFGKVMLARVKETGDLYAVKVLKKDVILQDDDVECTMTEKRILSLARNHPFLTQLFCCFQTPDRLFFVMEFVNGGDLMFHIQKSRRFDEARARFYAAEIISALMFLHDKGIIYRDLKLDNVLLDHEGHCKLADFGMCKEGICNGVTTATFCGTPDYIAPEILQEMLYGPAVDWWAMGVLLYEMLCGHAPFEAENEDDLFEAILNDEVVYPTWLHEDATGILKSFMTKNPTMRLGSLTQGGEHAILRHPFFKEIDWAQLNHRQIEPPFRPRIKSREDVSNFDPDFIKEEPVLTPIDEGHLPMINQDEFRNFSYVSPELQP
T1 sequence (Q86Y07 whole entry): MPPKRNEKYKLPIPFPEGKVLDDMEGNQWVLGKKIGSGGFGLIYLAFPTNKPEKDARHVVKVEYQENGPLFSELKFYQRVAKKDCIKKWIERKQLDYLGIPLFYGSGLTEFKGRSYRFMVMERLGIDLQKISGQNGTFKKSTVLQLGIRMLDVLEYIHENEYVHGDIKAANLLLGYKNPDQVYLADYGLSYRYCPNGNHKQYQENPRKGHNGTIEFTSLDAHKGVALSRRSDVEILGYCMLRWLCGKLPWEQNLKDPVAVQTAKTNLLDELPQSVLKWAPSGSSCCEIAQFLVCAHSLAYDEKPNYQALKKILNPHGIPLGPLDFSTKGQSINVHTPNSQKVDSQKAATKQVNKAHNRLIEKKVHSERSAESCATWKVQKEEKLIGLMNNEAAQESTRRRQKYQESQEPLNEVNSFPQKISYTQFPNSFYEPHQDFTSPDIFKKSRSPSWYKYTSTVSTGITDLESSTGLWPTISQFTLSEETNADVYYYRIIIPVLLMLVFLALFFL
T3 sequence (P27037 20-513): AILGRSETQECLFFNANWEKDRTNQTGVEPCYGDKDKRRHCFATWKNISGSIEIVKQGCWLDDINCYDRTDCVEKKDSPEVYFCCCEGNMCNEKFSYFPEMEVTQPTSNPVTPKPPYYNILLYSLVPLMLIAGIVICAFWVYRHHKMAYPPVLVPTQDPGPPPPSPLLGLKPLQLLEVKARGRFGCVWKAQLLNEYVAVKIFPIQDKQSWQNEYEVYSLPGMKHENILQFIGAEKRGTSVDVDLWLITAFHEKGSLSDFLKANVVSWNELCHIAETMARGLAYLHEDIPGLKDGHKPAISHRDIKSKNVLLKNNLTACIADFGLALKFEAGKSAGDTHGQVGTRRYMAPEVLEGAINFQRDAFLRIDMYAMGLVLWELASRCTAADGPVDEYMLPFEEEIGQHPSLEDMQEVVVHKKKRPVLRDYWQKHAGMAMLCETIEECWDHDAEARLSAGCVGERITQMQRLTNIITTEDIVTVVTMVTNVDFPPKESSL
T7 sequence (Q13554 whole entry): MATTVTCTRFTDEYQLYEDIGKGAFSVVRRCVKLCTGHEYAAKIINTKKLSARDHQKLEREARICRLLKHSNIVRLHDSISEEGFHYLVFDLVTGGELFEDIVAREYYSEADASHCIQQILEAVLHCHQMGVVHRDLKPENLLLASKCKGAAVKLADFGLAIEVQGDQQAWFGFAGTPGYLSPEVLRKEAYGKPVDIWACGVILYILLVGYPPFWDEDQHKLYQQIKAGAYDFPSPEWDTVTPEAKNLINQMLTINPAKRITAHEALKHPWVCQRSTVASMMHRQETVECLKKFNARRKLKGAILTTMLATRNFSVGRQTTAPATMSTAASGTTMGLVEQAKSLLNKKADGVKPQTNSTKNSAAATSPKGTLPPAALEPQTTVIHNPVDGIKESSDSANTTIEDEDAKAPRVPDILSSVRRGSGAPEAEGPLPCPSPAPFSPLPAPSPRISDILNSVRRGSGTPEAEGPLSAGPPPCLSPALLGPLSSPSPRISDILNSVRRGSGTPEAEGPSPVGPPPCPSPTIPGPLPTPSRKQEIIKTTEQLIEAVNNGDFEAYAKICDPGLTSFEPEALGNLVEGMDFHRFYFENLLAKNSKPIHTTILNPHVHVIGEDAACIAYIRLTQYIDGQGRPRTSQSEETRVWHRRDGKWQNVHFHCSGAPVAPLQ

`c1ccc(CNc2cc(-c3c[nH]c4ncccc34)ccn2)cc1` [meriolin 36]: the residual kinase activity at VRK2 (0.3 µM) is listed as 93 % of control; at VRK2 (3 µM), 45 % of control; on PDK1 (0.3 µM) it was 160 % of control; on PDK1 (3 µM), 39 % of control; at ACVR2A (0.3 µM), 94 % of control; on ACVR2A (3 µM), 47 % of control. In addition, the residual kinase activity on MTOR (0.3 µM) is given as 78 % of control; at MTOR (3 µM) it was 24 % of control; at PKCη (0.3 µM), 2 % of control; at PKCη (3 µM), 2 % of control; on MKK6 SDTD (0.3 µM) it was 63 % of control; on MKK6 SDTD (3 µM), 30 % of control. The residual kinase activity on CAMK2B (0.3 µM) is given as 83 % of control; at CAMK2B (3 µM), 31 % of control; on EPHB1 (0.3 µM), 124 % of control; at EPHB1 (3 µM), 79 % of control; at PKMYT1 (0.3 µM) it was 39 % of control; on PKMYT1 (3 µM), 13 % of control.
On to `COc1ccnc2[nH]cc(-c3cc(N)nc(N)c3)c12` [meriolin 16], for which the residual kinase activity is reported as 103 % of control on VRK2 (0.03 µM); 92 % of control on VRK2 (0.3 µM); 98 % of control at PDK1 (0.03 µM); 83 % of control on PDK1 (0.3 µM); 103 % of control on ACVR2A (0.03 µM); 103 % of control at ACVR2A (0.3 µM). In addition, the residual kinase activity is on record as 91 % of control on MTOR (0.03 µM); 105 % of control on MTOR (0.3 µM); 8 % of control on PKCη (0.03 µM); 2 % of control at PKCη (0.3 µM); 77 % of control at MKK6 SDTD (0.03 µM); 87 % of control at MKK6 SDTD (0.3 µM). The residual kinase activity on CAMK2B (0.03 µM) is listed as 103 % of control; on CAMK2B (0.3 µM), 74 % of control; on EPHB1 (0.03 µM), 98 % of control; at EPHB1 (0.3 µM), 97 % of control; at PKMYT1 (0.03 µM), 32 % of control; on PKMYT1 (0.3 µM) it was 23 % of control.
